Source: the Kinase Knowledgebase extract (Sharma et al. 2016)

Experiments:
PIK3CA (human) = PIK3CA (human) (UniProt P42336)
PIK3CB (Human) = PIK3CB (Human) (UniProt P42338)
PIK3CB (Human), sequence (P42338 whole entry, looked up): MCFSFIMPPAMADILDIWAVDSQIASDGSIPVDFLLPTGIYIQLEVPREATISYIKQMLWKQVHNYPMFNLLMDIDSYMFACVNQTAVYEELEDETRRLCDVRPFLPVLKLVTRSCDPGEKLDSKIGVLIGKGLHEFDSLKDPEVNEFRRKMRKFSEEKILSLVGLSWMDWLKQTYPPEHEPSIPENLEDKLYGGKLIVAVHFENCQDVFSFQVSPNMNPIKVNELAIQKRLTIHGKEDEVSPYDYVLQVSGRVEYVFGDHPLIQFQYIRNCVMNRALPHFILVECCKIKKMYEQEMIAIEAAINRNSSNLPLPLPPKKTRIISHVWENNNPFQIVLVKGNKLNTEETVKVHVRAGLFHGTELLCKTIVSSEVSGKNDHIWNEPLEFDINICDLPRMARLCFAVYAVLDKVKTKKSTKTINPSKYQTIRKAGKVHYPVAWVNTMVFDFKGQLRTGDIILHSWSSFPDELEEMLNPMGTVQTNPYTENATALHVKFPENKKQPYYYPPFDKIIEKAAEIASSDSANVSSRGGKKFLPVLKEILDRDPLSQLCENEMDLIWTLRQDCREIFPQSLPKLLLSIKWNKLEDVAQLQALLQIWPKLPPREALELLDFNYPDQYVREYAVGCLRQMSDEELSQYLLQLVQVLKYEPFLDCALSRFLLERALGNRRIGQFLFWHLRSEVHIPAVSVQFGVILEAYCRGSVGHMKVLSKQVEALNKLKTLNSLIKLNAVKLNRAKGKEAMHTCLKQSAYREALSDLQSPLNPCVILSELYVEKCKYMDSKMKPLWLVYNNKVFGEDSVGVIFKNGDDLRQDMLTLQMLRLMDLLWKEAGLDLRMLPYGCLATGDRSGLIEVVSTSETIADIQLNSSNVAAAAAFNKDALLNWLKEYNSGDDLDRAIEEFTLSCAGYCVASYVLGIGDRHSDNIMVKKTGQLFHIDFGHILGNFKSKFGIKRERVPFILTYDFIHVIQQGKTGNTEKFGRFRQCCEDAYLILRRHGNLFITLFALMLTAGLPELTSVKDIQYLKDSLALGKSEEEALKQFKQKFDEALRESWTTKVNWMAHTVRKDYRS

PIK3CA (human), sequence (P42336 whole entry, looked up): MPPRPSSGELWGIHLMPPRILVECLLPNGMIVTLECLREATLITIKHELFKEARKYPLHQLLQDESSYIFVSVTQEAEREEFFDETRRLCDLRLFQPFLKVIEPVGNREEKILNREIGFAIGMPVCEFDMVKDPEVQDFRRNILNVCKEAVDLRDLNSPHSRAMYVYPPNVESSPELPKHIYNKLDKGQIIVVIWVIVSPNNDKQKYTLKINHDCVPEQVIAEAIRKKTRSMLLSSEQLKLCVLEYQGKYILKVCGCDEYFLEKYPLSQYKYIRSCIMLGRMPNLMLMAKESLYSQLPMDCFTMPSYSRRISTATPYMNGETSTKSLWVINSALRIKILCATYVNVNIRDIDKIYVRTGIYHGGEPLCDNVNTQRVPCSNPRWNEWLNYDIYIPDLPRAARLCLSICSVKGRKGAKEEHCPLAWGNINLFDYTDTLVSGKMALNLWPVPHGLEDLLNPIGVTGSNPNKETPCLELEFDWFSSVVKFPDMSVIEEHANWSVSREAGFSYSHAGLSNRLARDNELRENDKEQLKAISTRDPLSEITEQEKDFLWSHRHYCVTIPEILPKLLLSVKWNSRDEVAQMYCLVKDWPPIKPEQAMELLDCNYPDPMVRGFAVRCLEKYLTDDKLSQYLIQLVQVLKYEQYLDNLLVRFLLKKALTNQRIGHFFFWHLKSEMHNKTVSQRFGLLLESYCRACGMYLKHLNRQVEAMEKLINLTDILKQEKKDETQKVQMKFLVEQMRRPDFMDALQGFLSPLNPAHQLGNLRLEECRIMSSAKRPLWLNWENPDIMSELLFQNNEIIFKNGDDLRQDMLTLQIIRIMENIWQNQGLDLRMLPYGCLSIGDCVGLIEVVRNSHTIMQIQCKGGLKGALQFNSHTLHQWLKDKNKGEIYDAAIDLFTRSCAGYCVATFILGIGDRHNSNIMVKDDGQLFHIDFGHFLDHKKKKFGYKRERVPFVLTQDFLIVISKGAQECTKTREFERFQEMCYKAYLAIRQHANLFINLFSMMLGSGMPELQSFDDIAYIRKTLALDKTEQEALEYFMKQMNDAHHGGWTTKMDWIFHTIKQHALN

SMILES: Cc1ccc(S(=O)(=O)NCC(C)(C)O)cc1-c1cnc(N)c(-c2cnc(C3CC3)o2)c1
- IC50 (PIK3CA (human)): 280 nM
- IC50 (PIK3CB (Human)): 1300 nM
